ChEMBL document CHEMBL4038283, “Synthesis of conformationally restricted 1,3-dioxanes to analyze the bioactive conformation of 1,3-dioxane-based σ1 and PCP receptor antagonists” (Bioorg Med Chem, 2017)

Tests used:
[1] = target: Sigma non-opioid intracellular receptor 1 (Cavia porcellus, UniProt Q60492); test: Displacement of [3H]-(+)-pentazocine from sigma1 receptor in guinea pig brain cortex membrane incubated for 120 mins measured for 5 mins by scintillation counting method; type: cell membranes
Sequence of Sigma non-opioid intracellular receptor 1 (Q60492 whole entry): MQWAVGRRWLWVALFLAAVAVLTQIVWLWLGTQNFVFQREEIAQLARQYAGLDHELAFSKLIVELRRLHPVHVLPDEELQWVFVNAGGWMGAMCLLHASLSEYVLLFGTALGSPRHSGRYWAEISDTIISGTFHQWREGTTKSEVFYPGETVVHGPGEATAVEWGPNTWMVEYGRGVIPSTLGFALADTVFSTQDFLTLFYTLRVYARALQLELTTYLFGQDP

[2] = target: T1, Sigma intracellular receptor 2 (Rattus norvegicus, UniProt Q5U3Y7); test: Displacement of [3H]-di-o-tolylguanidine from sigma2 receptor in rat liver membrane incubated for 120 mins measured for 5 mins by scintillation counting method; type: cell membranes
T1 sequence (Q5U3Y7 whole entry): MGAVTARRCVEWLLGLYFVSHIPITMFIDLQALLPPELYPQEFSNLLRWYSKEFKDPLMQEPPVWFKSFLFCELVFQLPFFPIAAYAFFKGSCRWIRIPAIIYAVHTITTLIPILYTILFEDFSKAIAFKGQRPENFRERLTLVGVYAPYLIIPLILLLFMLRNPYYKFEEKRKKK

[3] = Displacement of [3H]-(+)-MK-801 from NMDA PCP binding site in pig brain cortex membrane incubated for 120 mins measured for 5 mins by scintillation counting method; type: cell membranes, Sus scrofa

| SMILES | Ki [1] [nM] | Ki [2] [nM] | Ki [3] [nM] |
| --- | --- | --- | --- |
| NCCC1CC2OC(Cc3ccccc32)O1 (racemic) | > 1000 | > 1000 |  |
| NCCC1CC2OC(Cc3ccccc32)O1 (mixture of isomers) | > 1000 | > 1000 | > 1000 |
| c1ccc(CN(CCC2CC3OC(Cc4ccccc43)O2)Cc2ccccc2)cc1 (racemic; 22a) | 1400 | > 1000 | > 1000 |

The remaining lines, values ahead:

| Ki [1] [nM] | Ki [2] [nM] | Ki [3] [nM] | SMILES |
| --- | --- | --- | --- |
| 30 | > 1000 | > 1000 | c1ccc(CNCCC2CC3OC(Cc4ccccc43)O2)cc1 (racemic; 21a) |
| 5.9 | 153 |  | c1ccc(CNCCC2CC3OC(Cc4ccccc43)O2)cc1 (racemic; 21b) |
| > 1000 | > 1000 | > 1000 | CN(C)CCC1CC2OC(Cc3ccccc32)O1 (racemic) |
| 782 | > 1000 |  | c1ccc(CN(CCC2CC3OC(Cc4ccccc43)O2)Cc2ccccc2)cc1 (racemic; 22b) |
